Assay results taken from US12662491B2 (Redona Therapeutics, Inc., priority 2020, dated 2026).
Structures can show the parent of a compound that is named as a salt.

molecular target: T1, Zcchc11 enzyme (Homo sapiens, UniProt Q5TAX3); experiment: TUTase assay (Zcchc11 assay, Lin28a-dependent polyuridylation of pre-let-7); type: biochemical; conditions: Lin28a-dependent Zcchc11 (Z11) TUTase activity; read-out: Potency Lin28a-dep Z11 IC50
T1 construct: made in house; host or cells: HEK293 cells (Zcchc11); E. coli Rosetta II (LIN28A)
T1 sequence (Q5TAX3 212-1420): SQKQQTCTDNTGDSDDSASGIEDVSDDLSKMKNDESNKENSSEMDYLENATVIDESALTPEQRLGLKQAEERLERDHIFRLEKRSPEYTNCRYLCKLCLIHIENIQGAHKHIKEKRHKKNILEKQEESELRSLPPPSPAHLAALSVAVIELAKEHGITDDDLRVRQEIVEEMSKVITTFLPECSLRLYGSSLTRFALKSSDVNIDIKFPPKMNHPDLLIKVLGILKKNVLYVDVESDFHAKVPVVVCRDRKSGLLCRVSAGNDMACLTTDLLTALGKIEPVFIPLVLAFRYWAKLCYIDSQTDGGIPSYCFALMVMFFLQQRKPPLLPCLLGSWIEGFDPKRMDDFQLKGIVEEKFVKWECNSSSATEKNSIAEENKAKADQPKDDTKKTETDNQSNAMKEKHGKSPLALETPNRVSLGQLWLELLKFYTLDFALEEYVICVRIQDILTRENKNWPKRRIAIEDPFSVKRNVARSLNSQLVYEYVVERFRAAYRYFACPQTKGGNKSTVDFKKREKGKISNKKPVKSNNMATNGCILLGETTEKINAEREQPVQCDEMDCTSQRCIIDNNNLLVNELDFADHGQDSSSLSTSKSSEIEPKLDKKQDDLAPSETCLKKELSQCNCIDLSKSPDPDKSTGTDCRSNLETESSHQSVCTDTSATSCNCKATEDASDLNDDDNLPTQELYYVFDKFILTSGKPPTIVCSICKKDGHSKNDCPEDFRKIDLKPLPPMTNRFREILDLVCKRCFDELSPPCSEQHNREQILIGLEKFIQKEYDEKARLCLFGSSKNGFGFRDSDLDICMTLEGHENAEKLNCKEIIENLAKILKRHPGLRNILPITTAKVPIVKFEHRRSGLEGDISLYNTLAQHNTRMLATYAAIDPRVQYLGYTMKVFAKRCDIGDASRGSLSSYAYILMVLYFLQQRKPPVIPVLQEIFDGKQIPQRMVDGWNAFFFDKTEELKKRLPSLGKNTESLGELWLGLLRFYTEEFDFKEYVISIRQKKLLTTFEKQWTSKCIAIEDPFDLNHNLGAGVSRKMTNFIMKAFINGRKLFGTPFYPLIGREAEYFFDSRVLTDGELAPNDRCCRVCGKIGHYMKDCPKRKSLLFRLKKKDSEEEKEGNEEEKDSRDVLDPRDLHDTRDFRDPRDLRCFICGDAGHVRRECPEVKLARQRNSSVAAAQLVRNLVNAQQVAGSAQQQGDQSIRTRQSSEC
Protocol: The purpose of the Zcchc11 assay is to determine compound potency against Zcchc11 enzyme through the measurement of IC50. Compound inhibition is measured as a function of polyuridine tails added to RNA substrates in the presence of active TUTase, UTP, and inhibitor. The Zcchc11 assay was done in a black, non-binding, 384 well plate (Corning #3575). All steps were performed at room temperature. For a typical assay, a 29 ul aliquot of assay buffer (50 mM HEPES pH 7.3, 150 mM KCl, 5 mM MgCl2, 10 mM DTT, 0.01% Triton X-100, 40 U/ml RNAsin (Promega)) containing LIN28A protein (final concentration: 10 nM) is added to each well. Next, 1 ul of compound in 100% DMSO is transferred from a compound dilution plate in which the compound is serially diluted. Next, 10 ul of a 5× mix of Zcchc11 and RNA substrate (5′-fluorescein labeled pre-let-7 miRNA (Dharmacon)) is added (final concentrations: 0.2 nM and 2 nM, respectively). The plate is placed on a plate shaker for 30 seconds to produce mixing, then incubated for 30 minutes. Next, 10 ul of a 5× mix of UTP and the quenching probe (3′-rhodamine labeled A20, polyadenosine nucleotide, (IDT)) is added (final concentrations: 5 uM and 4 nM, respectively). The plate is immediately placed in a Biotek Cytation 5 plate reader, and the time-dependent decrease in fluorescein fluorescence resulting from annealing of the A20 probe to polyuridine tails is recorded, using the kinetics mode of the reader. Reaction rates are obtained using linear fits to the early portion of progress curves. IC50 values are calculated using a four parameter fit with 100% enzyme activity determined from the DMSO control and 0% activity from control samples lacking UTP.
The LIN28A protein was expressed in and purified from E. coli, strain Rosetta II (Novagen). The entire coding sequence of the human, wild-type protein was cloned into expression vector pMAL (NEB), down-stream from a maltose-binding protein tag. The linker sequence contained a TEV protease cleavage site. The protein was purified from bacterial extracts using an MBP-Trap column (GE Healthcare Life Sciences), followed by tag cleavage and removal of the tag by ion-exchange chromatography. When necessary, contaminating bacterial RNA was removed using the procedure describe by Faehnle C R. et al. (2017) Multi-domain utilization by TUT4 and TUT7 in control of let-7 biogenesis. Nat Struct Mol Biol, 24:658-665.
The Zcchc11 protein was expressed in and purified from HEK293 cells. A truncated protein comprising residues 212-1420 of the human sequence was cloned into expression vector pTT5 (Viva Biotech) down-stream from a maltose-binding protein tag. The linker sequence contained a TEV protease cleavage site, and a FLAG tag was added to the carboxyl terminus of the protein. The protein was purified from cell extracts using an MBP-Trap column (GE Healthcare Life Sciences), followed by tag cleavage and further enrichment of the full length construct using anti-FLAG affinity media (Sigma Aldrich).
“+” represents an IC50 value that is greater than 50 μM; “++” represents an IC50 value that is greater than 10 μM and equal to or less than 50 μM; “+++” represents an IC50 value that is greater than 1 μM and equal to or less than 10 μM; and “++++” represents an IC50 value that is equal to or less than 1 μM.

Row | SMILES | IC50 [nM]
1 | O=C(O)c1cn(-c2cnccn2)c2cc(N3CCC[C@@H]3COc3ncccc3F)c(F)cc2c1=O (racemic) [Compound 174, rac-(R)-6-fluoro-7-(2-(((3-fluoropyridin-2-yl)oxy)methyl)pyrrolidin-1-yl)-4-oxo-1-(pyrazin-2-yl)-1,4-dihydro-quinoline-3-carboxylic acid] | ≤ 1000
2 | CN1CC(n2cc(-n3cc(C(=O)O)c(=O)c4cc(Cl)c(N5CCC[C@@H]5COc5ncccc5Cl)cc43)cn2)C1 (racemic) [Compound 175, rac-(R)-6-chloro-7-(2-(((3-chloropyridin-2-yl)oxy)methyl)pyrrolidin-1-yl)-1-(1-(1-methylazetidin-3-yl)-1H-pyrazol-4-yl)-4-oxo-1,4-dihydro-quinoline-3-carboxylic acid] | ≤ 1000
3 | CN(C(=O)[C@H]1CCCN1c1cc2c(cc1Cl)c(=O)c(C(=O)O)cn2-c1cnccn1)c1ccccn1 (racemic) [Compound 178, rac-(R)-6-chloro-7-(2-(methyl (pyridin-2-yl)carbamoyl)pyrrolidin-1-yl)-4-oxo-1-(pyrazin-2-yl)-1,4-dihydro-quinoline-3-carboxylic acid] | > 50000
4 | Cc1c(-n2cc(C(=O)O)c(=O)c3cc(Cl)c(N4CCC[C@@H]4COc4ncccc4Cl)cc32)cnn1C (racemic) [Compound 179, rac-(R)-6-chloro-7-(2-(((3-chloropyridin-2-yl)oxy)methyl)pyrrolidin-1-yl)-1-(1,5-dimethyl-1H-pyrazol-4-yl)-4-oxo-1,4-dihydro-quinoline-3-carboxylic acid] | ≤ 1000
5 | Nc1ccc(-n2cc(C(=O)O)c(=O)c3cc(Cl)c(N4CC(c5ccccn5)C[C@@H]4COc4ncccc4Cl)cc32)cn1 (mixture of isomers) [Compound 180, rac-1-(6-aminopyridin-3-yl)-6-chloro-7-((2R)-2-(((3-chloropyridin-2-yl)oxy)methyl)-4-(pyridin-2-yl)pyrrolidin-1-yl)-4-oxo-1,4-dihydro-quinoline-3-carboxylic acid] | ≤ 1000
6 | O=C(O)c1cn(-c2cnc3c(n2)COC3)c2cc(N3CCC[C@@H]3COc3ncccc3Cl)c(Cl)cc2c1=O (racemic) [Compound 182, rac-(R)-6-chloro-7-(2-(((3-chloropyridin-2-yl)oxy)methyl)pyrrolidin-1-yl)-1-(5,7-dihydrofuro [3,4-b]pyrazin-2-yl)-4-oxo-1,4-dihydro-quinoline-3-carboxylic acid] | ≤ 1000
7 | Cn1cc(-n2cc(C(=O)O)c(=O)c3cc(C#N)c(N4CCC[C@@H]4COc4ncccc4F)nc32)cn1 (racemic) [Compound 183, rac-(R)-6-cyano-7-(2-(((3-fluoropyridin-2-yl)oxy)methyl)pyrrolidin-1-yl)-1-(1-methyl-1H-pyrazol-4-yl)-4-oxo-1,4-dihydro-1,8-naphthyridine-3-carboxylic acid] | 1000 to 10000
8 | CN(C)C1CN(c2ccc(-n3cc(C(=O)O)c(=O)c4cc(Cl)c(N5CCC[C@@]5(C)COc5ncccc5Cl)nc43)cn2)C1 (racemic) [Compound 186, rac-(R)-6-chloro-7-(2-(((3-chloropyridin-2-yl)oxy)methyl)-2-methyl-pyrrolidin-1-yl)-1-(6-(3-(dimethyl-amino)azetidin-1-yl)pyridin-3-yl)-4-oxo-1,4-dihydro-1,8-naphthyridine-3-carboxylic acid] | ≤ 1000
9 | Cc1ccc(Cl)c(OC[C@H]2CCCN2c2cc3c(cc2Cl)c(=O)c(C(=O)O)cn3-c2ccc(N3CC(N(C)C)C3)nc2)n1 (racemic) [Compound 187, rac-(R)-6-chloro-7-(2-(((3-chloro-6-methylpyridin-2-yl)oxy)methyl)pyrrolidin-1-yl)-1-(6-(3-(dimethyl-amino)azetidin-1-yl)pyridin-3-yl)-4-oxo-1,4-dihydro-quinoline-3-carboxylic acid] | ≤ 1000
10 | CN(C)C1CN(c2ccc(-n3cc(C(=O)O)c(=O)c4cc(Cl)c(N5CC(c6cnn(C)c6)C[C@@H]5COc5ncccc5Cl)cc43)cn2)C1 (mixture of isomers) [Compound 188, rac-6-chloro-7-((2R)-2-(((3-chloropyridin-2-yl)oxy)methyl)-4-(1-methyl-1H-pyrazol-4-yl)pyrrolidin-1-yl)-1-(6-(3-(dimethyl-amino)azetidin-1-yl)pyridin-3-yl)-4-oxo-1,4-dihydro-quinoline-3-carboxylic acid] | ≤ 1000
11 | CN(C)C1CN(c2ccc(-n3cc(C(=O)O)c(=O)c4cc(F)c(N5CC(c6ccc(O)nc6)C[C@@H]5COc5ncccc5Cl)cc43)cn2)C1 (mixture of isomers) [Compound 189, rac-7-((2R)-2-(((3-chloropyridin-2-yl)oxy)methyl)-4-(6-hydroxy-pyridin-3-yl)pyrrolidin-1-yl)-1-(6-(3-(dimethyl-amino)azetidin-1-yl)pyridin-3-yl)-6-fluoro-4-oxo-1,4-dihydro-quinoline-3-carboxylic acid] | ≤ 1000
12 | Nc1ccc(-n2cc(C(=O)O)c(=O)c3cc(Cl)c(N4CCC[C@@H]4COc4ncccc4Cl)nc32)cn1 (racemic) [Compound 190, rac-(R)-1-(6-aminopyridin-3-yl)-6-chloro-7-(2-(((3-chloropyridin-2-yl)oxy)methyl)pyrrolidin-1-yl)-4-oxo-1,4-dihydro-1,8-naphthyridine-3-carboxylic acid] | ≤ 1000
13 | Cn1cc(-n2cc(C(=O)O)c(=O)c3cc(Cl)c(N4CCC[C@@H]4COc4ncccc4Cl)nc32)cn1 (racemic) [Compound 191, rac-(R)-6-chloro-7-(2-(((3-chloropyridin-2-yl)oxy)methyl)pyrrolidin-1-yl)-1-(1-methyl-1H-pyrazol-4-yl)-4-oxo-1,4-dihydro-1,8-naphthyridine-3-carboxylic acid] | ≤ 1000
14 | O=C(O)c1cn(-c2cnn(C3CNC3)c2)c2nc(N3CCC[C@@H]3COc3ncccc3F)c(Cl)cc2c1=O (racemic) [Compound 192, rac-(R)-1-(1-(azetidin-3-yl)-1H-pyrazol-4-yl)-6-chloro-7-(2-(((3-fluoropyridin-2-yl)oxy)methyl)pyrrolidin-1-yl)-4-oxo-1,4-dihydro-1,8-naphthyridine-3-carboxylic acid hydrochloride] | ≤ 1000
